Source: PubChem BioAssay AID260 (DTP/NCI, 2004)
Values joined by “and” are separate entries in the source; they are usually repeats but may differ in a detail not shown here. Identical values can stand only once. Toxic doses and inconclusive results are not listed.

Test system: CD2F1 mice, intracerebral L1210 leukemia, survival T/C
Test: NCI In Vivo Anticancer Drug Screen. Data for tumor model L1210 Leukemia (intracerebral) in CD2F1 (CDF1) mice
Conditions: higher = longer survival
Protocol: The antitumor activity of compounds was measured in mice bearing transplantable tumors. Survival or tumor size were measured and the results are expressed as the measurement made in the treated group (T) divided by the measurement made in the vehicle treated control group (C). The tumor model used in this assay is L1210 Leukemia (intracerebral) in CD2F1 (CDF1) mice

Structure (SMILES): N[C@@H](Cc1ccc(N(CCCl)CCCl)cc1)C(=O)O
- T/C (endpoint: mean survival time, dose: 1.25 mg/kg/injection, schedule: Q01DX009 (ip), vehicle: saline): 116 % of control
- T/C (endpoint: mean survival time, dose: 2.5 mg/kg/injection, schedule: Q01DX009 (ip), vehicle: saline): 120 % of control

Structure (SMILES): C[C@H](CN1CC(=O)NC(=O)C1)N1CC(=O)NC(=O)C1
- T/C (endpoint: mean survival time, dose: 64.0 mg/kg/injection, schedule: Q01DX009 (ip), vehicle: water): 159 % of control
- T/C (endpoint: mean survival time, dose: 128.0 mg/kg/injection, schedule: Q01DX009 (ip), vehicle: water): 109 % of control
- T/C (endpoint: mean survival time, dose: 256.0 mg/kg/injection, schedule: Q01DX009 (ip), vehicle: water): 90 % of control

Structure (SMILES): CN(CCO)/N=N/c1nc[nH]c1C(N)=O
- T/C (endpoint: median survival time, dose: 32.0 mg/kg/injection, schedule: Q01DX005 (ip), vehicle: saline with Tween-80): 107 % of control
- T/C (endpoint: median survival time, dose: 64.0 mg/kg/injection, schedule: Q01DX005 (ip), vehicle: saline with Tween-80): 106 % of control
- T/C (endpoint: median survival time, dose: 128.0 mg/kg/injection, schedule: Q01DX005 (ip), vehicle: saline with Tween-80): 109 % of control
- T/C (endpoint: median survival time, dose: 256.0 mg/kg/injection, schedule: Q01DX005 (ip), vehicle: saline with Tween-80): 119 % of control

Structure (SMILES): COS(C)(=O)=O
- T/C (endpoint: median survival time, dose: 16.0 mg/kg/injection, schedule: Q01DX005 (ip), vehicle: saline): 107 % of control and 108 % of control
- T/C (endpoint: median survival time, dose: 32.0 mg/kg/injection, schedule: Q01DX005 (ip), vehicle: saline): 120 % of control
- T/C (endpoint: median survival time, dose: 64.0 mg/kg/injection, schedule: Q01DX005 (ip), vehicle: saline): 113 % of control
- T/C (endpoint: median survival time, dose: 128.0 mg/kg/injection, schedule: Q01DX005 (ip), vehicle: saline): 107 % of control and 111 % of control

Structure (SMILES): O=c1n(CC2CO2)c(=O)n(CC2CO2)c(=O)n1CC1CO1 (centres undefined)
- T/C (endpoint: median survival time, dose: 16.4 mg/kg/injection, schedule: Q01DX009 (ip), vehicle: saline): 123 % of control
- T/C (endpoint: median survival time, dose: 20.5 mg/kg/injection, schedule: Q01DX009 (ip), vehicle: saline): 115 % of control
- T/C (endpoint: median survival time, dose: 40.0 mg/kg/injection, schedule: Q01DX009 (ip), vehicle: saline): 152 % of control
- T/C (endpoint: median survival time, dose: 49.2 mg/kg/injection, schedule: Q01DX001 (ip), vehicle: saline): 114 % of control
- T/C (endpoint: median survival time, dose: 50.0 mg/kg/injection, schedule: Q01DX009 (ip), vehicle: saline): 110 % of control and 116 % of control
- T/C (endpoint: median survival time, dose: 61.4 mg/kg/injection, schedule: Q01DX001 (ip), vehicle: saline): 114 % of control
- T/C (endpoint: median survival time, dose: 70.0 mg/kg/injection, schedule: Q01DX009 (ip), vehicle: saline): 109 % of control
- T/C (endpoint: median survival time, dose: 76.8 mg/kg/injection, schedule: Q01DX001 (ip), vehicle: saline): 116 % of control
- T/C (endpoint: median survival time, dose: 80.0 mg/kg/injection, schedule: Q01DX009 (ip), vehicle: saline): 107 % of control
- T/C (endpoint: median survival time, dose: 90.0 mg/kg/injection, schedule: Q01DX009 (ip), vehicle: saline): 119 % of control
- T/C (endpoint: median survival time, dose: 180.0 mg/kg/injection, schedule: Q01DX009 (ip), vehicle: saline): 117 % of control

Structure (SMILES): CC1C[C@@H](O)C(NC(=O)N(CCCl)N=O)[C@@H](O)C1 (some centres undefined)
- T/C (endpoint: mean survival time, dose: 6.0 mg/kg/injection, schedule: Q01DX001 (ip), vehicle: saline): 123 % of control
- T/C (endpoint: mean survival time, dose: 13.0 mg/kg/injection, schedule: Q01DX001 (ip), vehicle: saline): 154 % of control
- T/C (endpoint: mean survival time, dose: 20.0 mg/kg/injection, schedule: Q01DX001 (ip), vehicle: saline): 332 % of control
- T/C (endpoint: mean survival time, dose: 30.0 mg/kg/injection, schedule: Q01DX001 (ip), vehicle: saline): 186 % of control
- T/C (endpoint: mean survival time, dose: 45.0 mg/kg/injection, schedule: Q01DX001 (ip), vehicle: saline): 157 % of control

Structure (SMILES): COC(=O)c1ccc(N=NN(C)C)cc1
- T/C (endpoint: median survival time, dose: 8.0 mg/kg/injection, schedule: Q01DX005 (ip), vehicle: saline + alcohol): 104 % of control
- T/C (endpoint: median survival time, dose: 16.0 mg/kg/injection, schedule: Q01DX005 (ip), vehicle: saline + alcohol): 106 % of control
- T/C (endpoint: median survival time, dose: 32.0 mg/kg/injection, schedule: Q01DX005 (ip), vehicle: saline + alcohol): 113 % of control
- T/C (endpoint: median survival time, dose: 64.0 mg/kg/injection, schedule: Q01DX005 (ip), vehicle: saline + alcohol): 120 % of control
- T/C (endpoint: median survival time, dose: 128.0 mg/kg/injection, schedule: Q01DX005 (ip), vehicle: saline + alcohol): 112 % of control
